Laboratory results from ChEMBL document CHEMBL1144160, “Discovery and optimization of (R)-prolinol-derived agonists of the Growth Hormone Secretagogue receptor (GHSR)” (Bioorg Med Chem Lett, 2008).

What was measured:
[1] = biological target: T1, Growth hormone secretagogue receptor type 1 (Homo sapiens, UniProt Q92847); experiment: Agonist activity at GHSR relative to full agonist; format: functional
[2] = biological target: T1, Growth hormone secretagogue receptor type 1; experiment: Agonist activity at GHSR; format: functional
[3] = biological target: T1, Growth hormone secretagogue receptor type 1; experiment: Binding affinity to GHSR

T1 sequence (Q92847 whole entry): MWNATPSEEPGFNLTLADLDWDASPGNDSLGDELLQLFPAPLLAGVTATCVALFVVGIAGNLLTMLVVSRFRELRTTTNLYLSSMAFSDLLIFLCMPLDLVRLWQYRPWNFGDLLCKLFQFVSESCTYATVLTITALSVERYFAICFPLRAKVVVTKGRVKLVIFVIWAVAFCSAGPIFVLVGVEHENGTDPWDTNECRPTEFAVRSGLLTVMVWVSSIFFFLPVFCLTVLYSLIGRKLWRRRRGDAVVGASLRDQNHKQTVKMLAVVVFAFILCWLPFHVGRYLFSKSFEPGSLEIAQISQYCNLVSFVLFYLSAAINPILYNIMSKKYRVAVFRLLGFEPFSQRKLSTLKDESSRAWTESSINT

Activity [1] [%]	EC50 [2] [nM]	Ki [3] [nM]	SMILES
80	40		CC(Oc1cccc(Cl)c1)C(=O)N(Cc1ccccc1Cl)C[C@H]1CCCN1 (stereo partly specified)
60	140		CC(=O)Nc1cccc(N(C[C@H]2CCCN2)C(=O)C(C)Oc2cccc(Cl)c2)c1 (stereo partly specified)
100	1200	≥ 10000	CC(=O)Nc1ccc(N(C[C@H]2CCCN2)C(=O)[C@@H](C)Oc2cccc(Cl)c2)cc1
	> 10000		CCC(Oc1ccccc1)C(=O)N(C[C@H]1CCCN1)c1cccc(SC)c1 (stereo partly specified)
	2000		CC(=O)Nc1ccc(N(C[C@H]2CCCN2)C(=O)COc2ccccc2)cc1
	> 10000		O=C(COc1ccccc1)N(Cc1ccccc1)C[C@H]1CCCN1
80	600		CC(Oc1ccccc1)C(=O)N(C[C@H]1CCCN1)c1ccc(Cl)cc1 (stereo partly specified)
	> 10000		CCC(Oc1ccccc1)C(=O)N(C[C@H]1CCCN1)c1cccc(OC)c1 (stereo partly specified)
80	7	300	CC(Oc1cccc(Cl)c1)C(=O)N(Cc1ccccc1)C[C@H]1CCCN1 (stereo partly specified)
90	50		CC(=O)Nc1ccc(N(C[C@H]2CCCN2)C(=O)C(C)Oc2ccccc2Cl)cc1 (stereo partly specified)
70	200		CC(=O)Nc1cccc(N(C[C@H]2CCCN2)C(=O)C(C)Oc2ccccc2Cl)c1 (stereo partly specified)
90	30		CC(Oc1cccc(Cl)c1)C(=O)N(Cc1ccc(Cl)cc1)C[C@H]1CCCN1 (stereo partly specified)
	2000		CSc1cccc(N(C[C@H]2CCCN2)C(=O)C(C)Oc2ccccc2)c1 (stereo partly specified)
100	3	100	Cc1ccccc1CN(C[C@H]1CCCN1)C(=O)C(C)Oc1cccc(Cl)c1 (stereo partly specified)
	14000		CCC(Oc1ccccc1)C(=O)N(C[C@H]1CCCN1)c1ccc(CC#N)cc1 (stereo partly specified)
	90		CC(Oc1ccccc1)C(=O)N(Cc1ccccc1)C[C@H]1CCCN1 (stereo partly specified)
	> 10000		O=C(COc1ccccc1)N(C[C@H]1CCCN1)c1ccccc1
60	250		CC(Oc1ccccc1Cl)C(=O)N(C[C@H]1CCCN1)c1cccc(Cl)c1 (stereo partly specified)
70	90		Cc1cccc(CN(C[C@H]2CCCN2)C(=O)C(C)Oc2ccccc2Cl)c1 (stereo partly specified)
80	1000		CC(=O)Nc1cccc(N(C[C@H]2CCCN2)C(=O)C(C)Oc2ccccc2)c1 (stereo partly specified)
100	20	250	CC(=O)Nc1ccc(N(C[C@H]2CCCN2)C(=O)[C@H](C)Oc2cccc(Cl)c2)cc1
	≥ 10000		CC(Oc1ccccc1Cl)C(=O)N(C[C@H]1CCCN1)c1ccc(Cl)cc1 (stereo partly specified)
80	50		CC(Oc1ccccc1)C(=O)N(Cc1cccc(Cl)c1)C[C@H]1CCCN1 (stereo partly specified)
100	1500	≥ 10000	C[C@@H](Oc1cccc(Cl)c1)C(=O)N(Cc1ccccc1)C[C@H]1CCCN1
	≥ 10000		CC(Oc1ccccc1Cl)C(=O)N(C[C@H]1CCCN1)c1ccccc1 (stereo partly specified)
60	20		CC(Oc1ccccc1Cl)C(=O)N(Cc1ccccc1)C[C@H]1CCCN1 (stereo partly specified)
100	150		CC(Oc1ccccc1)C(=O)N(Cc1ccccc1Cl)C[C@H]1CCCN1 (stereo partly specified)

Activity [1] [%]	EC50 [2] [nM]	Ki [3] [nM]	SMILES
90	10		CC(Oc1ccccc1Cl)C(=O)N(Cc1cccc(Cl)c1)C[C@H]1CCCN1 (stereo partly specified)
	900		CCC(Oc1ccccc1)C(=O)N(Cc1ccccc1)C[C@H]1CCCN1 (stereo partly specified)
90	140		Cc1ccccc1CN(C[C@H]1CCCN1)C(=O)C(C)Oc1ccccc1Cl (stereo partly specified)
	≥ 10000		CC(Oc1ccccc1Cl)C(=O)N(C[C@H]1CCCN1)c1ccccc1Cl (stereo partly specified)
60	260		CC(Oc1ccccc1Cl)C(=O)N(Cc1ccccc1Cl)C[C@H]1CCCN1 (stereo partly specified)
70	780		CC(Oc1cccc(Cl)c1)C(=O)N(C[C@H]1CCCN1)c1ccccc1Cl (stereo partly specified)
90	4	30	C[C@H](Oc1cccc(Cl)c1)C(=O)N(Cc1ccccc1)C[C@H]1CCCN1
	330		CC(=O)Nc1ccc(N(C[C@H]2CCCN2)C(=O)C(C)Oc2ccccc2)cc1 (stereo partly specified)
	9000		CC(Oc1ccccc1)C(=O)N(C[C@H]1CCCN1)c1ccc(CC#N)cc1 (stereo partly specified)
20	120		Cc1cccc(CN(C[C@H]2CCCN2)C(=O)C(C)Oc2cccc(Cl)c2)c1 (stereo partly specified)
80	1260		CC(Oc1ccccc1)C(=O)N(C[C@H]1CCCN1)c1ccccc1Cl (stereo partly specified)
	2000		CCC(Oc1ccccc1)C(=O)N(C[C@H]1CCCN1)c1cccc(-c2ccccc2)c1OC (stereo partly specified)
90	180	2200	Cc1ccccc1CN(C[C@H]1CCCN1)C(=O)[C@@H](C)Oc1cccc(Cl)c1
80	220		CC(Oc1ccccc1)C(=O)N(Cc1ccc(Cl)cc1)C[C@H]1CCCN1 (stereo partly specified)
	5000		COc1c(-c2ccccc2)cccc1N(C[C@H]1CCCN1)C(=O)COc1ccccc1
	> 10000		COc1cccc(N(C[C@H]2CCCN2)C(=O)COc2ccccc2)c1
	4000		CCC(Oc1ccccc1)C(=O)N(C[C@H]1CCCN1)c1ccc(NC(C)=O)cc1 (stereo partly specified)
110	90		CC(Oc1ccccc1)C(=O)N(C[C@H]1CCCN1)c1cccc(Cl)c1 (stereo partly specified)
90	80		Cc1cccc(CN(C[C@H]2CCCN2)C(=O)C(C)Oc2ccccc2)c1 (stereo partly specified)
80	60		CC(Oc1ccccc1Cl)C(=O)N(Cc1ccc(Cl)cc1)C[C@H]1CCCN1 (stereo partly specified)
	4000		COc1cccc(N(C[C@H]2CCCN2)C(=O)C(C)Oc2ccccc2)c1 (stereo partly specified)
70	20		CC(Oc1cccc(Cl)c1)C(=O)N(Cc1cccc(Cl)c1)C[C@H]1CCCN1 (stereo partly specified)
90	2	30	Cc1ccccc1CN(C[C@H]1CCCN1)C(=O)[C@H](C)Oc1cccc(Cl)c1
110	40		Cc1ccccc1CN(C[C@H]1CCCN1)C(=O)C(C)Oc1ccccc1 (stereo partly specified)
110	40		CC(Oc1cccc(Cl)c1)C(=O)N(C[C@H]1CCCN1)c1cccc(Cl)c1 (stereo partly specified)
90	30	260	CC(=O)Nc1ccc(N(C[C@H]2CCCN2)C(=O)C(C)Oc2cccc(Cl)c2)cc1 (stereo partly specified)

SMILES	Activity [1] [%]	EC50 [2] [nM]	Ki [3] [nM]
CC(Oc1cccc(Cl)c1)C(=O)N(C[C@H]1CCCN1)c1ccc(Cl)cc1 (stereo partly specified)	90	120	
CC(Oc1ccccc1)C(=O)N(C[C@H]1CCCN1)c1ccccc1 (stereo partly specified)		440	
CC(Oc1cccc(Cl)c1)C(=O)N(C[C@H]1CCCN1)c1ccccc1 (stereo partly specified)	60	120	
